Experimental data as given in PMC12486440, “Design, synthesis, and in silico studies of new benzofuran–pyrazole hybrids as multi-kinase inhibitors with potential antiproliferative activity” (RSC Advances, 2025).

How the values were obtained:
[1] = tested on: HL-60(TB); assay: cells; details: Homo sapiens
[2] = tested on: SK-MEL-2
[3] = molecular target: c-Met (Homo sapiens, UniProt P08581); assay: c-Met kinase inhibitory assay (HTRF); type: biochemical
[4] = tested on: OVCAR-4
[5] = tested on: 786–0
[6] = tested on: SF-295
[7] = tested on: NCI-H226
[8] = molecular target: T1, VEGFR-2 (Homo sapiens, UniProt P35968); assay: VEGFR-2 kinase inhibitory assay (Kinase-Glo MAX); type: biochemical
T1 construct: purchased
T1 sequence (P35968 20-1356): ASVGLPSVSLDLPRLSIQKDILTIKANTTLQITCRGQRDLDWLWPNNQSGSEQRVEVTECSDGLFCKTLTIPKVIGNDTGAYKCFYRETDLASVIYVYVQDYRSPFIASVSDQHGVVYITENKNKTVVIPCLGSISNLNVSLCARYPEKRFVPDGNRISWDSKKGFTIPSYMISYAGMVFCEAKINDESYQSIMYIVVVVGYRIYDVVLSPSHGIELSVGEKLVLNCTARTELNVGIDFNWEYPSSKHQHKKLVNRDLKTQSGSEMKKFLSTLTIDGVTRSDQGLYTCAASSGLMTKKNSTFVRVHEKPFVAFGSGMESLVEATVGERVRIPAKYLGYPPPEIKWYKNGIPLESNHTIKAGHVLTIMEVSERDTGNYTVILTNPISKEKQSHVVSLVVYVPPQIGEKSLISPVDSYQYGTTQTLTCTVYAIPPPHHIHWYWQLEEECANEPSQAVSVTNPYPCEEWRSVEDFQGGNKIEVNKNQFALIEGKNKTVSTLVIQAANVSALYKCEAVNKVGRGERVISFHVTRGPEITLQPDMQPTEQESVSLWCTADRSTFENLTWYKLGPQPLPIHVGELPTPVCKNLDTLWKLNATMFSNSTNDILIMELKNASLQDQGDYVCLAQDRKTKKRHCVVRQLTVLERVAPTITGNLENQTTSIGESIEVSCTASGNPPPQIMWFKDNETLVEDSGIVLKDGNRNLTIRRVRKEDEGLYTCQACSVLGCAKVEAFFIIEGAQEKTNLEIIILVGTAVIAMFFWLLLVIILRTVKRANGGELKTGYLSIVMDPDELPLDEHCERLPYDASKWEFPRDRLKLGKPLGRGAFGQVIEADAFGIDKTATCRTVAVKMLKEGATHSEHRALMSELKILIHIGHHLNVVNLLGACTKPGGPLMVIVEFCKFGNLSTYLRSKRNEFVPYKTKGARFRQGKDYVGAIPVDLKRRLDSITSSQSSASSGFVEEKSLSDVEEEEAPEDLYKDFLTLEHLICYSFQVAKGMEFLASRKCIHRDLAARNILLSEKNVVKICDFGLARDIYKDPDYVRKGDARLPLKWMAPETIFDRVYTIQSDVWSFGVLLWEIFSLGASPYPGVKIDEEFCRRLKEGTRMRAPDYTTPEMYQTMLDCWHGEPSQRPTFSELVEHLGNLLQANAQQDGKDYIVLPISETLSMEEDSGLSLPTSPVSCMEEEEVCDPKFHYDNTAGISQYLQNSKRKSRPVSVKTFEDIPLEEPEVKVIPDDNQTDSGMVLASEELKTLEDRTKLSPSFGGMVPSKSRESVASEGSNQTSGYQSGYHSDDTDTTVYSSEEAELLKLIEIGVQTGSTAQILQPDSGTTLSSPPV

[9] = tested on: HT29
[10] = tested on: DU-145
[11] = tested on: IGROV1
[12] = tested on: MCF-7 cancer cells; assay: Cell cycle analysis (PI flow cytometry); type: cell-based, human; details: GI50 concentration 2.75 μM, 48 h
Protocol: More details are presented in the SI.
Given that 3d has emerged as a well-balanced active compound that functions as both an anticancer agent and a multi-targeting protein kinase suppressor, it was of interest to gain a deeper understanding of how 3d inhibits the growth of cancer cells. A propidium iodide (PI) staining experiment was performed in this study to look at its effect on cell cycle distribution and apoptosis activation.[81,82]
This blocked cell cycle passage at the G0–G1 stage can stop cells from dividing and growing, which is in line with that shown by other tests about the ability of compound 3d to stop cell division and growth (Fig. 3). […]
minute reaction, 50 μl of Kinase-Glo Max reagent was added to each well. […] 10) Luminescence was measured using the microplate reader. […]
The protocol of the experiment depends on the dilution of the enzyme, substrate, ATP, and inhibitors in kinase buffer. […] Then, luminescence (integration time 0.5–1 second) was recorded according to the manufacturer’s instructions. […]
Further exploration of the cytotoxic activity of compound 3d was performed using propidium iodide (PI) flow cytomertric analysis to measure the extent of PI that binds to DNA of dead cells with permeable plasma membranes to determine cell cycle status in tissue culture quantitate cell death at all cell phases. […]

[13] = tested on: HOP-62
[14] = tested on: SN12C
[15] = tested on: OVCAR-3
[16] = tested on: NSCL cancer subpanel; assay: NCI 60 subpanel summary; type: cell-based, human
[17] = tested on: Melanoma subpanel; assay: NCI 60 subpanel summary; type: cell-based, human
[18] = tested on: MDA-MB-435
[19] = molecular target: T2, EGFR (WT) (Homo sapiens, UniProt P00533); assay: EGFR WT kinase inhibitory assay (HTRF); type: biochemical
T2 construct: purchased Sigma
T2 sequence (P00533 25-1210): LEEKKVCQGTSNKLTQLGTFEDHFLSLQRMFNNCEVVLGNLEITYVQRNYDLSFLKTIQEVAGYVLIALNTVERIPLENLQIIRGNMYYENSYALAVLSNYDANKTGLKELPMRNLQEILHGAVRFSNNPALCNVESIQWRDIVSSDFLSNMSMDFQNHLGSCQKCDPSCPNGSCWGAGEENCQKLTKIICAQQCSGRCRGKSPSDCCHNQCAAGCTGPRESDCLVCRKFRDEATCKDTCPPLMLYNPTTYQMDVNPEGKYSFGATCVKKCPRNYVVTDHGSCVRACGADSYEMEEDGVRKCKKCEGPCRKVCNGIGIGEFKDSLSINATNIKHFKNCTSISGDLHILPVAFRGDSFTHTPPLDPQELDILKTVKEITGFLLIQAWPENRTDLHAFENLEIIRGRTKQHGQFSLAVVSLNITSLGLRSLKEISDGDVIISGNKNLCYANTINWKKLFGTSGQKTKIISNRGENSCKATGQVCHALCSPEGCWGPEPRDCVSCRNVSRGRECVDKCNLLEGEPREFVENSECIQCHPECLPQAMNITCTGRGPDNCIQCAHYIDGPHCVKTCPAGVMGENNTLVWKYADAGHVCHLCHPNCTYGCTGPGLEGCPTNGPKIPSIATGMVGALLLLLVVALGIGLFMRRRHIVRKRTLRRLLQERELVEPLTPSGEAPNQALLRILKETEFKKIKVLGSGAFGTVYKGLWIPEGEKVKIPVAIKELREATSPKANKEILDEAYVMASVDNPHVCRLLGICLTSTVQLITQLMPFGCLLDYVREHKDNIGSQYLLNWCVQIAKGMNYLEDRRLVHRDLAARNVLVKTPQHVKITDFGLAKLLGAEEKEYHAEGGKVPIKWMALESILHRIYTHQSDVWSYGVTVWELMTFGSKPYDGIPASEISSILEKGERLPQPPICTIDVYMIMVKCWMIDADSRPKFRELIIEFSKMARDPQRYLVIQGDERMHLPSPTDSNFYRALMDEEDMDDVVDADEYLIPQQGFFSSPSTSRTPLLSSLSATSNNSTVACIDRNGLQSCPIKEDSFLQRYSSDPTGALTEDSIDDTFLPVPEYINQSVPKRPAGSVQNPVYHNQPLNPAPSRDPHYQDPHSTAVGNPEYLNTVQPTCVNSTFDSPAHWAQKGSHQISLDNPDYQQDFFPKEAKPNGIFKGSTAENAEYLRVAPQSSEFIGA

[20] = tested on: ACHN
[21] = single dose 10 μM, ovarian carcinoma
[22] = single dose 10 μM, renal carcinoma
[23] = single dose 10 μM, non-small lung carcinoma
[24] = Homo sapiens, subpanel mean graph midpoint, read-out: MG-MID (GI50)
[25] = full panel MG-MID / subpanel MG-MID

c-Met, sequence (P08581 25-1390): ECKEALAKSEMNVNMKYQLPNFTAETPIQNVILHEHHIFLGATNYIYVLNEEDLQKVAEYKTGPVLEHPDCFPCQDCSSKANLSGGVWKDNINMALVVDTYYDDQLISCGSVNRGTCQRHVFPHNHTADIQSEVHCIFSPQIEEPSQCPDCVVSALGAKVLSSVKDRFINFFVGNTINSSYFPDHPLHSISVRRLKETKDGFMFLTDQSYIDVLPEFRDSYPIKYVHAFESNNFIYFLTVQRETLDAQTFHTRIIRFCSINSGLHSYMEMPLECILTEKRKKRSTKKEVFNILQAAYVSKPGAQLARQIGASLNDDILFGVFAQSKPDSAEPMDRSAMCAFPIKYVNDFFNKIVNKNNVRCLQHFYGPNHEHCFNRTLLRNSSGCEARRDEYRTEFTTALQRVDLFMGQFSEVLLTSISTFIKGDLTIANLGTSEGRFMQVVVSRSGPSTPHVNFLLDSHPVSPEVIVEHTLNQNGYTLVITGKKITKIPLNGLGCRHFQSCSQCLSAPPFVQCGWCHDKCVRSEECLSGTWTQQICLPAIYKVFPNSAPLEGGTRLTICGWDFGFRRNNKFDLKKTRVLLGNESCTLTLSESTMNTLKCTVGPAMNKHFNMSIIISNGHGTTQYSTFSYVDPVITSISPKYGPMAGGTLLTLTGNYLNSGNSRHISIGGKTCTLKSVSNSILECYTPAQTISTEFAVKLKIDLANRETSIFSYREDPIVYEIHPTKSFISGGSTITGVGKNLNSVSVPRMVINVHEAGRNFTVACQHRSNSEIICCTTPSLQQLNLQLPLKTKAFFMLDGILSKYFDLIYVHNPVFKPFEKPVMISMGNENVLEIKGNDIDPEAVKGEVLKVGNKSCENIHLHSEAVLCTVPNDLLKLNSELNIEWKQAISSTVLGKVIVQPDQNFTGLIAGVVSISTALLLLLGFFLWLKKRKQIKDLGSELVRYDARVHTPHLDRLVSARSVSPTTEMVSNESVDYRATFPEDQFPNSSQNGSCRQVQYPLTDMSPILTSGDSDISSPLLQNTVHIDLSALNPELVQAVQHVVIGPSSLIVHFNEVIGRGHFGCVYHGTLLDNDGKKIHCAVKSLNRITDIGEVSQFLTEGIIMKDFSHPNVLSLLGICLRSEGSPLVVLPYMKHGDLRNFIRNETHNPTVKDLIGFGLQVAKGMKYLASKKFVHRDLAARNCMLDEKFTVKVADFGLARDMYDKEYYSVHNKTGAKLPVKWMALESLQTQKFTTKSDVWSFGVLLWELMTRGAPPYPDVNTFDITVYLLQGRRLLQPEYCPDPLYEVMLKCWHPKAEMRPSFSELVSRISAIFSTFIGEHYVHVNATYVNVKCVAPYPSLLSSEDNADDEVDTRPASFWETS

Work on `c1ccc(-n2cc(C3CC(c4nc5ccccc5[nH]4)=NN3)c(-c3cc4ccccc4o3)n2)cc1` (centres unmarked) [3d, 3-(Benzofuran-2-yl)-4-(3-(1H-benzo[d]imidazol-2-yl)-4,5-dihydro-1H-pyrazol-5-yl)-1-phenyl-1H-pyrazole] yielded a GI50 [1] of 2.56 µM, a GI50 ([2]; Homo sapiens, SK-MEL-2) of 2.53 µM and a GI% ([2]; single dose 10 μM, melanoma) of 99.44%. For the same compound, the IC50 [3] was 0.911 µM, the GI50 ([4]; Homo sapiens, OVCAR-4) was 3.51 µM and the GI% [4, 21] was 66.52%. The GI50 ([5]; Homo sapiens, 786-0) was 4.31 µM, the GI% [5, 22] was 71.73% and the GI50 ([6]; Homo sapiens, SF-295) was 2.59 µM. The GI% ([6]; single dose 10 μM, CNS cancer) was 84.73%, the GI50 ([7]; Homo sapiens, NCI-H226) was 6.62 µM and the GI% [7, 23] was 34.35%. The IC50 [8] was 0.619 µM, the “times more effective at suppressing VEGFR-2 than sorafenib” value ([8]; ratio of IC50 values) was 4.1 and the GI50 ([9]; Homo sapiens, HT-29) was 6.46 µM. The GI% ([9]; single dose 10 μM, colon cancer) was 64.97%, the GI50 ([10]; Homo sapiens, DU-145) was 5.15 µM and the GI% ([10]; single dose 10 μM, prostate carcinoma) was 67.57%. For the same compound, the GI50 ([11]; Homo sapiens, IGROV-1) was 3.34 µM, the GI% [11, 21] was 89.61% and the “cell percentage in the G2/M stage” value ([12]; control […]) was 15.9%. The “percentage of cells in the G0–G1 phase” value ([12]; untreated 48.39%) was 61.03%, the GI50 ([13]; Homo sapiens, HOP-62) was 3.66 µM and the GI% [13, 23] was 74.46%. It also gave a GI50 ([14]; Homo sapiens, SN12C) of 3.42 µM, a GI% [14, 22] of 88.17% and a GI50 ([15]; Homo sapiens, OVCAR-3) of 4.91 µM. It also gave a GI% [15, 21] of 81.63%, a GI50 [16, 24] of 4.02 µM and a Selectivity index [16, 25] of 1.04. It also gave a GI50 [17, 24] of 3.92 µM, a Selectivity index [17, 25] of 1.07 and a GI50 ([18]; Homo sapiens, MDA-MB-435) of 4.24 µM. The GI% ([18]; single dose 10 μM, melanoma) was 83.49%, the IC50 [19] was 0.398 µM and the “times more effective at suppressing EGFR (WT) than erlotinib” value ([19]; ratio of IC50 values) was 1.2. It also gave a GI50 ([20]; Homo sapiens, ACHN) of 3.11 µM and a GI% [20, 22] of 92.45%.
